From PMC6274388, “Deoxyelephantopin from Elephantopus scaber Inhibits HCT116 Human Colorectal Carcinoma Cell Growth through Apoptosis and Cell Cycle Arrest” (Molecules, 2016)

Experiments:
[1] = test system: HCT116 human colorectal carcinoma cells; assay: MTT cytotoxicity assay on HCT116 cells; type: cell-based; details: for cell viability: HCT116, 72 h, 0.39–25.0 µg/mL; for IC50: Homo sapiens, HCT-116, HCT116, MTT
Experimental: (§1) HCT116 human colorectal cancer cells and CCD841-CoN normal cells were obtained from the American Type Culture Collection (ATCC, Manassas, VA, USA). HCT116 cells and CCD841-CoN normal cells were cultured in RPMI-1640 and EMEM media respectively, with 10% v/v heat-inactivated fetal bovine serum (FBS), 100 µg/mL penicillin streptomycin and 50 µg/mL amphotericin B at 37 °C in 5% CO2 incubator.
(§2) To investigate the cytotoxic effect of each fraction and compounds, the MTT assay was utilized. Cells were seeded and exposed to different concentrations (0.38–25 µg/mL) of each fraction which was dissolved in DMSO. 5-fluorouracil (5-FU) was used as positive control. Untreated cells (negative control) were treated with vehicle dimethyl sulfoxide (DMSO). The final concentration of DMSO was below 0.5% v/v in all experiments. MTT (5 mg/mL) was then added to each well after treatment and incubated for another 4 h at 37 °C. Subsequently, the medium was discarded and replaced by 150 µL of DMSO to dissolve the formazan crystals followed by quantified at 570 nm and 650 nm as a background using a microplate reader (Asys UVM340, Biochrom, Eugendorf, Austria). The percentage of cell viability was calculated according to the following equation: Cell viability percentage (%) = (Absorbance of treated cells/absorbance of untreated cells) × 100%.

HCT116 cells [2] = assay: Cell cycle distribution by PI flow cytometry; type: cell-based, human; details: 24 h
Experimental: 1 × 10^6 HCT116 cells were plated in 60 mm^2 culture dishes and exposed to different concentrations of DET (0.75, 1.5 and 3.0 µg/mL) for 24 h. The cells were harvested and centrifuged at 300× g at room temperature. The cells were then resuspended in 1 mL of buffer solution followed by centrifugation and washing with buffer solution. Subsequently, 250 µL of Solution A (trypsin buffer) was added and incubated for 10 min, followed by addition of 100 µL of Solution B (trypsin inhibitor and RNase buffer) and incubated at room temperature for 10 min. 200 µL of cold PI solution was added, gently mixed and incubated on ice for 10 min in the dark. Finally, samples were assessed by using flow cytometry (BD, San Jose, CA, USA).

CDK2 = assay: Western blot, CDK2 in HCT116 cells; type: cell-based, human; details: HCT116, 0.75, 1.5 and 3.0 µg/mL, 24 h
Experimental: (§3) 1 × 10^6 HCT116 cells were plated in 60 mm^2 culture dishes and exposed to varying concentrations of DET (0.75, 1.5 and 3.0 µg/mL) for 24 h. The cells were collected, resuspended in cold RIPA buffer containing protease and phosphatase inhibitors and placed on ice for 5 min followed by centrifugation at 14,000× g for 15 min at 4 °C. 25 μg of total proteins was separated on the 12% SDS-PAGE gels and transferred onto nitrocellulose membranes, followed by the blocking using skim milk/bovine serum albumin for 1 h. Membranes were incubated with primary antibodies (cleaved PARP, cleaved caspase-3, p-p53, p21, CDK2, CDK4, CDK 6, cyclin D1, cyclin A2, cyclin B, cyclin E and GAPDH, Cell Signaling) at 4 °C overnight. Subsequently, the membranes were washed with TBST (0.05% Tween 20 in TBS) and incubated with corresponding anti-mouse/rabbit immunoglobulin G-horseradish peroxidase-conjugated secondary antibody (Cell Signaling, Danvers, MA, USA) at room temperature for 1 h. Then, the membranes were washed with TBST. The bands was detected by using enhanced chemiluminescence (ECL) detection kit (BioRad, Hercules, CA, USA) and visualized using gel documentation system. Protein bands were analyzed quantitatively and qualitatively with Vilber Lourmart.

HCT116 cells [3] = assay: Externalization of phosphatidylserine, Annexin V-FITC/PI staining, flow cytometry; type: cell-based, human; details: 24 h
Experimental: 1 × 10^6 HCT116 cells were plated in 60 mm^2 culture dishes and exposed to different concentrations of DET (0.75, 1.5 and 3.0 µg/mL) for 24 h. Subsequently, cells were washed with PBS, resuspended in 1× Annexin V binding buffer and stained with Annexin V-fluorescein-isothiocyanate (FITC) (BD) and propidium iodide (PI) in the dark at room temperature for 15 min. 1× binding buffer was then added into each tube. The apoptotic and necrotic cell populations were then examined by flow cytometry. The fluorescence intensity was detected in FL1-A (x-axis) and FL2-A channel (y-axis).

cleaved PARP = assay: Western blot, cleaved PARP in HCT116 cells; type: cell-based, human; details: HCT116, 0.75, 1.5 and 3.0 µg/mL, 24 h
Experimental: as §3

cyclin A2 = assay: Western blot, cyclin A2 in HCT116 cells; type: cell-based, human; details: HCT116, 0.75, 1.5 and 3.0 µg/mL, 24 h
Experimental: as §3

cleaved caspase-3 = assay: Western blot, cleaved caspase-3 in HCT116 cells; type: cell-based, human; details: HCT116, 0.75, 1.5 and 3.0 µg/mL, 24 h
Experimental: as §3

cyclin D1 = assay: Western blot, cyclin D1 in HCT116 cells; type: cell-based, human; details: HCT116, 0.75, 1.5 and 3.0 µg/mL, 24 h
Experimental: as §3

cyclin B1 = assay: Western blot, cyclin B1 in HCT116 cells; type: cell-based, human; details: HCT116, 0.75, 1.5 and 3.0 µg/mL, 24 h
Experimental: as §3

p21 = assay: Western blot, p21 in HCT116 cells; type: cell-based, human; details: HCT116, 0.75, 1.5 and 3.0 µg/mL, 24 h
Experimental: as §3

phospho-p53 = assay: Western blot, phospho-p53 in HCT116 cells; type: cell-based, human; details: HCT116, 0.75, 1.5 and 3.0 µg/mL, 24 h
Experimental: as §3

cyclin E2 = assay: Western blot, cyclin E2 in HCT116 cells; type: cell-based, human; details: HCT116, 0.75, 1.5 and 3.0 µg/mL, 24 h
Experimental: as §3

CDK6 = assay: Western blot, CDK6 in HCT116 cells; type: cell-based, human; details: HCT116, 0.75, 1.5 and 3.0 µg/mL, 24 h
Experimental: as §3

HCT116 cells [4] = assay: Nuclear morphological changes, Hoechst 33342/PI staining; type: cell-based, human; details: HCT116, 0.75, 1.5 and 3.0 µg/mL, 24 h, dose-dependent
Experimental: 1 × 10^6 HCT116 cells were plated in 60 mm^2 culture dishes and treated with increasing concentrations of DET (0.75, 1.5 and 3.0 µg/mL) while negative control was treated with the vehicle DMSO for 24 h. Then, the cells were collected, washed with PBS and proceed to staining with Hoechst 33342 (40 µg/mL) and propidium iodide solution (10 µg/mL) at room temperature in the dark for 30 min. The cells were then examined by inverted fluorescence microscopy (DM1600B, Leica, Wetzlar, Germany).

CDK4 = assay: Western blot, CDK4 in HCT116 cells; type: cell-based, human; details: HCT116, 0.75, 1.5 and 3.0 µg/mL, 24 h
Experimental: as §3

[5] = test system: CCD841CoN normal colon cells; assay: MTT cytotoxicity assay on CCD841CoN normal colon cells; type: cell-based, human; details: for IC50: Homo sapiens, CCD-841CoN, MTT, 72 h
Experimental: as §1, §2

[6] = 72 h, value in brackets after the µg/mL value
[7] = CCD841-CoN normal cell line, mean ± S.E. (n = 9)

## C=C(C)C(=O)O[C@H]1CC2=C[C@H](C/C(C)=C/[C@H]3OC(=O)C(=C)[C@H]13)OC2=O [Isodeoxyelephantopin, isodeoxyelephantopin]
[1]
  cell viability: dose-dependent reduction of cell viability
[1]; 72 h, mean ± S.E. (n = 9)
  IC50: 0.88 ± 0.02 µg/mL
[1]; [6]
  IC50: 2.56 µM

## C=C(C)C(=O)O[C@H]1CC2=C[C@@H](C/C(C)=C/[C@H]3OC(=O)C(=C)[C@H]13)OC2=O [Deoxyelephantopin, deoxyelephantopin]
HCT116 cells [2]; HCT116, 1.5 µg/mL
  cells in the S phase: 28.17% ± 0.23%
HCT116 cells [2]; HCT116, 3.0 µg/mL
  cells in the S phase: 29.25% ± 0.21%
HCT116 cells [2]; HCT116, 0.75, 1.5 and 3.0 µg/mL
  cell cycle progression: cell cycle arrest at S phase
CDK2
  CDK2 protein expression: significant downregulation
[1]
  cell viability: dose-dependent reduction of cell viability
[1]; 24 h
  IC50: 2.36 ± 0.02 µg/mL
[1]; 48 h
  IC50: 0.9 ± 0.02 µg/mL
[1]; 72 h, mean ± S.E. (n = 9)
  IC50: 0.73 ± 0.01 µg/mL
[1]; [6]
  IC50: 2.12 µM
HCT116 cells [3]; HCT116, 0.75 μg/mL
  accumulation of apoptotic cells compared to untreated control: significant accumulation of apoptotic cells
HCT116 cells [3]; HCT116, 3.0 µg/mL
  proportion of apoptotic cells (early and late apoptotic phases): 63.63% ± 2.03%
HCT116 cells [3]; HCT116, 0.75–3.0 µg/mL
  necrotic cell death: did not significantly induce necrotic cell death
HCT116 cells [3]; Homo sapiens, HCT-116, HCT116, 0.75 μg/mL, representative plot, read-out: Q1-LL cells (annexin−/PI−, viable)
  viability at 0.75 µg/mL: 74.8%
HCT116 cells [3]; Homo sapiens, HCT-116, HCT116, 1.50 μg/mL, representative plot, read-out: Q1-LL cells (annexin−/PI−, viable)
  viability at 1.5 µg/mL: 59.8%
HCT116 cells [3]; Homo sapiens, HCT-116, HCT116, 3.00 μg/mL, representative plot, read-out: Q1-LL cells (annexin−/PI−, viable)
  viability at 3 µg/mL: 34.1%
Cleaved PARP
  cleaved PARP protein expression: dose-dependent upregulation
Cyclin A2
  cyclin A2 protein expression: significant downregulation
Cleaved caspase-3
  cleaved caspase-3 protein expression: dose-dependent upregulation
Cyclin D1
  cyclin D1 protein expression: significant downregulation
Cyclin B1
  cyclin B1 protein expression: significant downregulation
p21
  p21 expression level: upregulated
phospho-p53
  phospho-p53 expression level: upregulated
Cyclin E2
  cyclin E2 protein expression: significant downregulation
CDK6
  CDK6 protein expression: remain constant
HCT116 cells [4]
  apoptotic morphological changes (chromatin condensation, cell shrinkage, DNA fragmentation): apoptosis-inducing effect
CDK4
  CDK4 protein expression: significant downregulation
[5]; [7]
  IC50: 21.7 ± 0.92 µg/mL
[5]; CCD841CoN normal cells, value in brackets after the µg/mL value
  IC50: 60 µM
[5]; IC50 at 72 h
  difference in cytotoxicity, CCD841CoN normal cells compared to HCT116 cells: 30 fold

## O=c1[nH]cc(F)c(=O)[nH]1 [5-Fluorouracil, 5-fluorouracil, reference compound]
[1]; 72 h, mean ± S.E. (n = 9)
  IC50: 0.73 ± 0.02 µg/mL
[1]; [6]
  IC50: 5 µM
[5]; [7]
  IC50: > 25 µg/mL
